Measurements published in patent US12319693B2, “Crystalline forms of CFTR modulators” (Vertex Pharmaceuticals Incorporated, priority 2019, dated 2025).

Experiments:
F508del CFTR [1] = molecular target: T1, F508del CFTR (Homo sapiens, UniProt P13569, DEL508-508); experiment: Ussing chamber chloride transport in F508del/F508del HBE cells; type: cell-based; conditions: for chloride transport (effect in words): Compound I alone 16 to 24 h, Compound III added in the presence of Compound I or Compound I/Compound II
T1 construct: HBE cells derived from 3 F508del homozygous donors and 5 F508del/MF donors; endogenous in cells; host or cells: primary HBE cells from F508del/F508del and F508del/MF donors
Procedure: (§1) Ussing chamber studies were conducted to measure F508del CFTR-mediated chloride transport in HBE cells derived from 3 F508del homozygous donors and 5 F508del/MF donors (G542X, 3 donors; E585X, 1 donor; 3905InsT, 1 donor). As a positive control, maximally effective concentrations of N-(benzenesulfonyl)-6-[3-[2-[1-(trifluoromethyl)cyclopropyl]ethoxy]pyrazol-1-yl]-2-[(4S)-2,2,4-trimethylpyrrolidin-1-yl]pyridine-3-carboxamide (see WO 2018/064632) and N-[(6-amino-2-pyridyl)sulfonyl]-6-(3-fluoro-5-isobutoxy-phenyl)-2-[(4S)-2,2,4-trimethylpyrrolidin-1-yl]pyridine-3-carboxamide (see WO 2016/057572) in combination with Compound II/Compound III were included in each experiment.
(§2) In these CF cell lines, CFTR-mediated chloride transport was low in the absence of CFTR modulators, which is consistent with little-to-no CFTR at the cell surface. […] However, the efficacy of Compound I/Compound III and Compound I/Compound II/Compound III was similar at their respective EC90 values.

F508del CFTR [2] = molecular target: T1, F508del CFTR; experiment: Ussing chamber chloride transport in F508del/MF HBE cells; type: cell-based; conditions: for chloride transport (effect in words): Compound I alone 16 to 24 h, Compound III added in the presence of Compound I or Compound I/Compound II
Procedure: as §1, §2

[3] = Safety analysis of ongoing clinical study (Cohorts A1 to A5, B, C); type: in vivo, human
Procedure: A safety analysis of an ongoing clinical study was performed for 37 subjects in Cohorts A1 to A5, 33 subjects in Cohort B, and 17 subjects in Cohort C, who were exposed to at least 1 dose of study drug (Compound I or placebo) as a monotherapy and as part of a triple combination with Compound II or Compound III.

[4] = Pharmacokinetics after a single oral administration in male dogs; type: in vivo; conditions: nominal dose 1 mg/kg
Procedure: (§3) Following a single oral administration of Compound I in male animals, Compound I mean tmax values were 9 h in rats, 4 h in dogs, and 3 h in monkeys.

[5] = Systemic exposure with increasing dose and repeated oral administration for 28 d in rats; type: in vivo
Procedure: (§4) Following repeated oral administration of Compound I for 28 d in rats and dogs, accumulation of Compound I exposure was observed. Systemic exposure to Compound I on Day 28 was higher than on Day 1 (Day 28/Day 1 AUC024h ratio ranged from 1.63 to 2.70 in male rats, 5.01 to 8.26 in female rats, 1.73 to 2.64 in male dogs, and 1.82 to 2.23 in female dogs).

[6] = molecular target: CFTR-mediated chloride transport (Homo sapiens, UniProt P13569); experiment: Membrane potential dye assay in human intestinal epithelial enteroid cells; type: cell-based; conditions: 18-24 h incubation, acute 10 μM forskolin + 300 nM Compound III
Procedure: Base medium (ADF+++) consisted of Advanced DMEM/Ham's F12, 2 mM Glutamax, 10 mM HEPES, 1μ/ml penicillin/streptomycin.
Intestinal enteroid maintenance medium (IEMM) consisted of ADF+++, 1×B27 supplement, 1×N2 supplement, 1.25 mM N-acetyl cysteine, 10 mM Nicotinamide, 50 ng/mL hEGF, 10 nM Gastrin, 1 μg/mL hR-spondin-1, 100 ng/mL hNoggin, TGF-b type 1 inhibitor A-83-01, 100 μg/mL Primocin, 10 μM P38 MAPK inhibitor SB202190.
Bath 1 Buffer consisted of 1 mM MgCl2, 160 mM NaCl, 4.5 mM KCl, 10 mM HEPES, 10 mM Glucose, 2 mM CaCl2).
Chloride Free Buffer consisted of 1 mM Magnesium Gluconate, 2 mM Calcium Gluconate, 4.5 mM Potassium Gluconate, 160 mM Sodium Gluconate, 10 mM HEPES, 10 mM Glucose.
Bath1 Dye Solution consisted of Bath 1 Buffer, 0.04% Pluronic F127, 20 μM Methyl Oxonol, 30 μM CaCCinh-A01, 30 μM Chicago Sky Blue. […]
Enteroid cells were incubated with test compound in IEMM for 18-24 h at 37° C., 95% humidity and 5% CO2. […] Chloride transport was initiated by addition of Chloride Free Dye Stimulation Solution and the fluorescence signal was read for 15 min. […] Chloride transport was then expressed as a percentage of the chloride transport following treatment with 3 μM Compound I, 3 μM Compound II, and 300 nM acute Compound III triple combination control (% Activity). […]

[7] = Pharmacokinetics after a single oral administration in male monkeys; type: in vivo; conditions: nominal dose 1 mg/kg, oral bioavailability
Procedure: as §3

[8] = Systemic exposure with increasing dose and repeated oral administration for 28 d in dogs; type: in vivo; conditions: as the dose increased
Procedure: as §4

[9] = Pharmacokinetics after a single oral administration in male rats; type: in vivo
Procedure: as §3

[10] = Relative stability of polymorphic / solvate forms; type: physicochemical; conditions: water activity ≤0.95 at ambient temperature
[11] = with a fixed combination of Compound II
[12] = with a fixed concentration of Compound III or Compound II/Compound III

T1 sequence (P13569 with tags, fused parts or gaps DEL508-508): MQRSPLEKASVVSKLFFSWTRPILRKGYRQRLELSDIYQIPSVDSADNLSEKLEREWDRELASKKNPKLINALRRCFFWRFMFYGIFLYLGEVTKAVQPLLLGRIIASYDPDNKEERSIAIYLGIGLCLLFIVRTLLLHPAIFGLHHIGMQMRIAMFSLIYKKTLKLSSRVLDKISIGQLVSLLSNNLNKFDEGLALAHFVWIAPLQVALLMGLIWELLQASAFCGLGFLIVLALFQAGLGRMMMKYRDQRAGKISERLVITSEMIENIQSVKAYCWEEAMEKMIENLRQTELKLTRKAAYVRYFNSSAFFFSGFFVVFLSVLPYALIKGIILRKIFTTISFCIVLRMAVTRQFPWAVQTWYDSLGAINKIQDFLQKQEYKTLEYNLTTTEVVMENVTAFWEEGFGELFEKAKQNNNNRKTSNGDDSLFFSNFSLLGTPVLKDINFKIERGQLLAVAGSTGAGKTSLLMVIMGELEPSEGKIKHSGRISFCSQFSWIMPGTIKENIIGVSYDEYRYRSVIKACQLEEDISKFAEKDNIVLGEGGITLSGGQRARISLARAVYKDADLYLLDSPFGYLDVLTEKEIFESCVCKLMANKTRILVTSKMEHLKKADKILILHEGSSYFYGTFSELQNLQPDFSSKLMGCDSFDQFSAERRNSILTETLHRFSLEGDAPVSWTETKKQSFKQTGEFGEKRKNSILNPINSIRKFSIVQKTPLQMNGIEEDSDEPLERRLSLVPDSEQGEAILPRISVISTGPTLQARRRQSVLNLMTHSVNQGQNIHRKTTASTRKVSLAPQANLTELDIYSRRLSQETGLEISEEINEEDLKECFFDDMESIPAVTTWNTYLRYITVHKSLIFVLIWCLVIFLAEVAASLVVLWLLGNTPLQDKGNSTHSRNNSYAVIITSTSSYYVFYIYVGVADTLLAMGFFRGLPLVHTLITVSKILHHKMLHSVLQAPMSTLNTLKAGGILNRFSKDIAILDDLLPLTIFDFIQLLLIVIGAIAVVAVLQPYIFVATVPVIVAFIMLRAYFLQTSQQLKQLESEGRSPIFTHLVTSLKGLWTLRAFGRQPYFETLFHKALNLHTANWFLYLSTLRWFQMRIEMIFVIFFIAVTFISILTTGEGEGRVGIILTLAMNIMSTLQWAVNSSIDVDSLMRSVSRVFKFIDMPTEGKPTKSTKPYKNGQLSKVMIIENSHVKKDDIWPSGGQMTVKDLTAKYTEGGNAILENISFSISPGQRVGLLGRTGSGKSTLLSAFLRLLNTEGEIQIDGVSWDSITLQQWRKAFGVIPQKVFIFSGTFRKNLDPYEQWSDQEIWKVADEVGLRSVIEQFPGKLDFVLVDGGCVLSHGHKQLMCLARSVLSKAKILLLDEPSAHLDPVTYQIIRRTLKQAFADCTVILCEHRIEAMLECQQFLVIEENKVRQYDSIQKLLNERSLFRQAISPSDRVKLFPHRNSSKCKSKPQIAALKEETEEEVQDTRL
Chain of CFTR-mediated chloride transport (P13569 whole entry): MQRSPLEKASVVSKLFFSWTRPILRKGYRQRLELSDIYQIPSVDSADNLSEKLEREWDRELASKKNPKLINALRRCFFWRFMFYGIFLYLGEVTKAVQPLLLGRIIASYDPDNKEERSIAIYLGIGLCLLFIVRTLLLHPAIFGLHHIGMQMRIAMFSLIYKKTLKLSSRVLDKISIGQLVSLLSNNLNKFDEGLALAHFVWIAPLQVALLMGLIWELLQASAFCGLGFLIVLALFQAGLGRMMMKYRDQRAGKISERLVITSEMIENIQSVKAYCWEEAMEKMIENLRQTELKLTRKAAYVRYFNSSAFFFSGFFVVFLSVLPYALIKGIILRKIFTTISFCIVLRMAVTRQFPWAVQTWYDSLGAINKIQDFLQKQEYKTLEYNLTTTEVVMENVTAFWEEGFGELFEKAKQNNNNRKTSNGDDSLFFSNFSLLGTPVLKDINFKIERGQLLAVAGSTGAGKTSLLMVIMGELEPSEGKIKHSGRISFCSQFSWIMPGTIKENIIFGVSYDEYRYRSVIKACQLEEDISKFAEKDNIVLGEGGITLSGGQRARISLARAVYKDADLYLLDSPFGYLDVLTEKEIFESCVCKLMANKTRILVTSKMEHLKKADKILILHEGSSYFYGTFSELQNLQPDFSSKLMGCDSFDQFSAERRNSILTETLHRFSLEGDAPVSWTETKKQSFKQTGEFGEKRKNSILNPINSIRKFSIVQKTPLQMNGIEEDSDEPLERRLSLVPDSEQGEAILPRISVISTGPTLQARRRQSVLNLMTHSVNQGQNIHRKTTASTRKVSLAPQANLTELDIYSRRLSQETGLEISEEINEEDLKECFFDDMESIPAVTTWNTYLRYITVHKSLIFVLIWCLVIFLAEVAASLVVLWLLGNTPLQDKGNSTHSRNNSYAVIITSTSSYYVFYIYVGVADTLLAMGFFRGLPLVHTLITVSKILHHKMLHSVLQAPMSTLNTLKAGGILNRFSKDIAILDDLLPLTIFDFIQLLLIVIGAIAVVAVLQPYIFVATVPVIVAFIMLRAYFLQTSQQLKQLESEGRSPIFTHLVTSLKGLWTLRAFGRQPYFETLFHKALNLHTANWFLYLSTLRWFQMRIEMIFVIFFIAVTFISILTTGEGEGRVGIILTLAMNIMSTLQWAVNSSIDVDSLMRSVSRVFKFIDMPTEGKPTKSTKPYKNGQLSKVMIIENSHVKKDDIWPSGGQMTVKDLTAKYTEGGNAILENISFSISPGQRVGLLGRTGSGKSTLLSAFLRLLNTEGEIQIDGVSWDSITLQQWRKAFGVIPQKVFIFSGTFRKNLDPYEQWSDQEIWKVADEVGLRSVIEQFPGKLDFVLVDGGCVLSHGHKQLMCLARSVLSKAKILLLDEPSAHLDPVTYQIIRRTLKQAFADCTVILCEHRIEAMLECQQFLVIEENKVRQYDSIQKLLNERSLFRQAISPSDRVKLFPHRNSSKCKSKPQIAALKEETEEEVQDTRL

Structure (SMILES) | chloride transport (effect in words) (F508del CFTR [1]) | chloride transport (effect in words) (F508del CFTR [2]) | synergy analysis (F508del CFTR [1]; [11]) | synergy analysis (F508del CFTR [1]; [12]) | safety and tolerability ([3]; up to 20 mg qd in triple combination with Compound II and Compound III) | safety and tolerability ([3]; up to a dose of 60 mg qd in monotherapy) | tmax ([4]; mean ± SD (n = 3)) [h] | F ([4]; oral bioavailability) [%] | Dosenormalized exposure, sex difference [5] | increase of systemic exposure with dose ([5]; as the dose increased) | EC50 [6] [µM] | Max. Activity ([6]; % of chloride transport with 3 μM Compound I, 3 μM Compound II, 300 nM acute Compound III control) | synergy analysis (F508del CFTR [2]; [11]) | synergy analysis (F508del CFTR [2]; [12]) | F [7] [%] | increase of systemic exposure with dose [8] | F ([9]; nominal dose 3 mg/kg, oral bioavailability) [%] | bioavailability ([9]; rat, in vivo, 3 mg/kg, read-out: Mean oral bioavailability (F)) [%] | relative polymorphic stability [10]
CC(C)(C)c1cc(C(C)(C)C)c(NC(=O)c2c[nH]c3ccccc3c2=O)cc1O [Compound III, N-[2,4-bis(1,1-dimethylethyl)-5-hydroxyphenyl]-1,4-dihydro-4-oxoquinoline-3-carboxamide, reference compound] | strongly potentiated chloride transport | strongly potentiated chloride transport |  |  |  |  |  |  |  |  |  |  |  |  |  |  |  |  | 
CC1(C)C[C@@H]2CCCNc3cccc(n3)S(=O)(=O)NC(=O)c3ccc(-n4ccc(OCCC5C6(CC6)C56CC6)n4)nc3N1C2 [Compound I, (14S)-8-[3-(2-{Dispiro[2.0.2.1]heptan-7-yl}ethoxy)-1H-pyrazol-1-yl]-12,12-dimethyl-2λ6-thia-3,9,11,18,23-pentaazatetracyclo[17.3.1.111,14.05,10]tetracosa-1(22),5,7,9,19(23),20-hexaene-2,2,4-trione] | modest increase in chloride transport | modest increase in chloride transport | modestly synergistic | highly synergistic | generally safe and well-tolerated | generally safe and well-tolerated | 4.00 ± 0.00 | 49.7 | higher in female rats than male rats | more than doseproportional | < 1 | +++ (+++ is >60%) | modestly synergistic | highly synergistic | 12.9 | more than doseproportional | 76.9 | 76.9 | 
CC1(C)C[C@@H]2CCCNc3cccc(n3)S(=O)(=O)NC(=O)c3ccc(-n4ccc(OCCC5C6(CC6)C56CC6)n4)nc3N1C2 [Compound I free Form A] |  |  |  |  |  |  |  |  |  |  |  |  |  |  |  |  |  |  | most stable polymorphic form
